In brackets after ≈: the same amount, converted by molar mass. Where two headings read alike, the source gives them in different places.
Experiments:
[1] = tested on: Pseudomonas aeruginosa ATCC 14502; assay: minimum inhibitory concentration (agar plate growth inhibition); assay type: cell-based
Method: (§1) The mixture or composition prepared as in Example 1 was tested to determine the minimum inhibitory concentration (MIC) of the composition against various microorganisms (i.e., bacteria, yeast and fungi) according to the following procedure:
(§2) (1) Tryptic Soy Agar (TSA) was prepared according to the manufacturer's directions by suspending 40 g TSA in cold deionized water (1 liter). The suspension was heated to boiling in order to dissolve completely and then autoclaved for 15 minutes at 15 pounds pressure at 121° C.
(§3) (2) After autoclaving, the media was cooled to 45° C. in a water bath.
(§4) (3) At this point, the mixture was aseptically added to the TSA at different levels in order to obtain the desired test concentrations.
(§5) (1) The bacteria and yeast inoculum consisted of 0.1 ml of a 1:100 saline dilution of an overnight TSB broth culture (10-10 CFU/ml). CFU=Colony Forming Units.
(§6) (3) A sterile Dacron swab was used to spread the inoculum evenly over the entire agar surface.
(§7) (1) The bacteria and yeast plates were incubated at 35° C. for 48 hours.

[2] = tested on: Pseudomonas aeruginosa ATCC 9027; assay: as above; assay type: cell-based
Method: as §1, §2, §3, §4, §5, §6, §7

[3] = tested on: Klebsiella pneumoniae ATCC 8308; assay: as above; assay type: cell-based
Method: as §1, §2, §3, §4, §5, §6, §7

[4] = tested on: Staphylococcus aureus ATCC 6538; assay: as above; assay type: cell-based
Method: as §1, §2, §3, §4, §5, §6, §7

[5] = tested on: Pseudomonas aeruginosa ATCC 15442; assay: as above; assay type: cell-based
Method: as §1, §2, §3, §4, §5, §6, §7

[6] = tested on: Bacillus subtilis ATCC 6633; assay: as above; assay type: cell-based
Method: as §1, §2, §3, §4, §5, §6, §7

[7] = tested on: Streptococcus faecalis; assay: as above; assay type: cell-based; conditions: Enterococcus faecalis, 48 h
Method: as §1, §2, §3, §4, §5, §6, §7

[8] = tested on: Staphylococcus epidermidis ATCC 1228; assay: as above; assay type: cell-based
Method: as §1, §2, §3, §4, §5, §6, §7

[9] = tested on: Candida albicans ATCC 10231; assay: as above; assay type: cell-based
Method: as §1, §2, §3, §4, §5, §6, §7

[10] = tested on: Serratia marcescens ATCC 8100; assay: as above; assay type: cell-based
Method: as §1, §2, §3, §4, §5, §6, §7

[11] = tested on: Salmonella typhosa ATCC 6539; assay: as above; assay type: cell-based; conditions: Salmonella enterica, 48 h
Method: as §1, §2, §3, §4, §5, §6, §7

[12] = tested on: Enterobacter cloacae ATCC 23355; assay: as above; assay type: cell-based
Method: as §1, §2, §3, §4, §5, §6, §7

[13] = tested on: Proteus vulgaris ATCC 13315; assay: as above; assay type: cell-based
Method: as §1, §2, §3, §4, §5, §6, §7

[14] = tested on: Saccharomyces cerevisiae; assay: as above; assay type: cell-based; conditions: 48 h
Method: as §1, §2, §3, §4, §5, §6, §7

[15] = tested on: Escherichia coli ATCC 8739; assay: as above; assay type: cell-based
Method: as §1, §2, §3, §4, §5, §6, §7

[16] = tested on: Pseudomonas stutzeri; assay: as above; assay type: cell-based; conditions: Stutzerimonas stutzeri, 48 h
Method: as §1, §2, §3, §4, §5, §6, §7

[17] = tested on: Pseudomonas aeruginosa ATCC 13388; assay: as above; assay type: cell-based
Method: as §1, §2, §3, §4, §5, §6, §7

[18] = physchem; conditions: water
[19] = tested on: Trichophyton mentagrophytes; assay: minimum inhibitory concentration (agar plate growth inhibition); assay type: cell-based
Method: as §1, §2, §3, §4
(§8) (2) The fungus inoculum consisted of 0.1 ml of a spore-saline suspension harvested by gently rubbing the spores from a 1-week old Sabourand dextrose agar slant incubated at 25° C. with sterile saline (10-10 CFU/ml).
as §6
(§9) (2) The fungus plates were incubated at 30° C. for 72-96 hours.

[20] = tested on: Aspergillus niger ATCC 9642; assay: as above; assay type: cell-based
Method: as §1, §2, §3, §4, §8, §6, §9

[21] = tested on: Penicillium chrysogenum ATCC 9480; assay: as above; assay type: cell-based
Method: as §1, §2, §3, §4, §8, §6, §9

[22] = water solubility
[23] = ATCC14502, TSA, 35° C., 48 h, read-out: MIC
[24] = ATCC9027, TSA, 35° C., 48 h, read-out: MIC
[25] = ATCC8308, TSA, 35° C., 48 h, read-out: MIC
[26] = ATCC6538, TSA, 35° C., 48 h, read-out: MIC
[27] = ATCC15442, TSA, 35° C., 48 h, read-out: MIC
[28] = ATCC6633, TSA, 35° C., 48 h, read-out: MIC
[29] = ATCC1228, TSA, 35° C., 48 h, read-out: MIC
[30] = ATCC10231, TSA, 35° C., 48 h, read-out: MIC
[31] = ATCC8100, TSA, 35° C., 48 h, read-out: MIC
[32] = ATCC23355, TSA, 35° C., 48 h, read-out: MIC
[33] = ATCC13315, TSA, 35° C., 48 h, read-out: MIC
[34] = ATCC8739, TSA, 35° C., 48 h, read-out: MIC
[35] = ATCC13388, TSA, 35° C., 48 h, read-out: MIC
[36] = TSA, 30° C., 72-96 h, read-out: MIC
[37] = ATCC9642, TSA, 30° C., 72-96 h, read-out: MIC
[38] = ATCC9480, TSA, 30° C., 72-96 h, read-out: MIC

Row | SMILES | MIC [1, 23] [µg/mL] | MIC [2, 24] [µg/mL] | MIC [3, 25] [µg/mL] | MIC [4, 26] [µg/mL] | MIC [5, 27] [µg/mL] | MIC [6, 28] [µg/mL] | MIC ([7]; TSA, 35° C., read-out: MIC) [µg/mL] | MIC [8, 29] [µg/mL] | MIC [9, 30] [µg/mL] | MIC [10, 31] [µg/mL] | MIC [11] [µg/mL] | MIC [12, 32] [µg/mL] | MIC [13, 33] [µg/mL] | MIC ([14]; TSA, 35° C., read-out: MIC) [µg/mL] | MIC [15, 34] [µg/mL] | MIC ([16]; TSA, 35° C., read-out: MIC) [µg/mL] | MIC [17, 35] [µg/mL] | solubility [18] [µg/mL] | MIC [19, 36] [µg/mL] | MIC [20, 37] [µg/mL] | also measured
1 | CC(C)COC(=O)c1ccc(O)cc1 [Isobutyl p-Hydroxybenzoate, isobutyl p-hydroxybenzoate] | > 1000 | > 1000 | 500 (≈ 2570 µM) | 250 (≈ 1290 µM) | > 1000 | 250 (≈ 1290 µM) | 500 (≈ 2570 µM) | 250 (≈ 1290 µM) | 125 (≈ 644 µM) | 1000 (≈ 5150 µM) | 1000 (≈ 5150 µM) | 1000 (≈ 5150 µM) | 250 (≈ 1290 µM) | 125 (≈ 644 µM) | > 1000 | > 1000 | > 1000 | 200 (≈ 1030 µM) | 63 (≈ 324 µM) | 250 (≈ 1290 µM) | MIC [21, 38]: 125 µg/mL (≈ 644 µM)
2 | CC(C)OC(=O)c1ccc(O)cc1 [Isopropyl p-Hydroxybenzoate, isopropyl p-hydroxybenzoate] | > 2000 | 2000 (≈ 11100 µM) | 500 (≈ 2770 µM) | 1000 (≈ 5550 µM) | > 2000 | 500 (≈ 2770 µM) | 1000 (≈ 5550 µM) | 500 (≈ 2770 µM) | 250 (≈ 1390 µM) | 1000 (≈ 5550 µM) | 1000 (≈ 5550 µM) | 1000 (≈ 5550 µM) | 500 (≈ 2770 µM) | < 125 | 1000 (≈ 5550 µM) | 1000 (≈ 5550 µM) | > 2000 | 800 (≈ 4440 µM) | < 125 | 250 (≈ 1390 µM) | MIC [21, 38]: < 125 µg/mL
3 | CCCCOC(=O)c1ccc(O)cc1 [n-Butyl p-Hydroxybenzoate, n-butyl p-hydroxybenzoate] | – | – | – | – | – | – | – | – | – | – | 500 (≈ 2570 µM) | – | – | – | – | – | – | – | – | – | MIC ([1]; ATCC14502, 48 h): > 6000 µg/mL; MIC ([2]; ATCC9027, 48 h): > 6000 µg/mL; MIC ([3]; ATCC8308, 48 h): 250 µg/mL (≈ 1290 µM); MIC ([4]; ATCC6538, 48 h): 125 µg/mL (≈ 644 µM); MIC ([5]; ATCC15442, 48 h): > 6000 µg/mL; MIC ([6]; ATCC6633, 48 h): 250 µg/mL (≈ 1290 µM); MIC [7]: 250 µg/mL (≈ 1290 µM); MIC ([8]; ATCC1228, 48 h): 250 µg/mL (≈ 1290 µM); MIC ([9]; ATCC10231, 48 h): 125 µg/mL (≈ 644 µM); MIC ([10]; ATCC8100, 48 h): 500 µg/mL (≈ 2570 µM); MIC ([12]; ATCC23355, 48 h): 250 µg/mL (≈ 1290 µM); MIC ([13]; ATCC13315, 48 h): 125 µg/mL (≈ 644 µM); MIC [14]: 32 µg/mL (≈ 165 µM); MIC ([15]; ATCC8739, 48 h): 500 µg/mL (≈ 2570 µM); MIC [16]: 500 µg/mL (≈ 2570 µM); MIC ([17]; ATCC13388, 48 h): > 6000 µg/mL; solubility [22]: 150 µg/mL (≈ 772 µM); MIC [19]: 32 µg/mL (≈ 165 µM); MIC ([20]; ATCC9642): 125 µg/mL (≈ 644 µM); MIC ([21]; ATCC9480): 63 µg/mL (≈ 324 µM)

Source: patent US4496576A, “Compositions of p-hydroxybenzoic acid esters and methods of preparation and use” (priority 1983, dated 1985)
